One assay addresses T1, TMEM16A (Homo sapiens, UniProt Q5XXA6).
T1 construct: expressed in transfected cells; host or cells: HEK293T-derived, doxycycline-inducible
T1 sequence (Q5XXA6 1-986): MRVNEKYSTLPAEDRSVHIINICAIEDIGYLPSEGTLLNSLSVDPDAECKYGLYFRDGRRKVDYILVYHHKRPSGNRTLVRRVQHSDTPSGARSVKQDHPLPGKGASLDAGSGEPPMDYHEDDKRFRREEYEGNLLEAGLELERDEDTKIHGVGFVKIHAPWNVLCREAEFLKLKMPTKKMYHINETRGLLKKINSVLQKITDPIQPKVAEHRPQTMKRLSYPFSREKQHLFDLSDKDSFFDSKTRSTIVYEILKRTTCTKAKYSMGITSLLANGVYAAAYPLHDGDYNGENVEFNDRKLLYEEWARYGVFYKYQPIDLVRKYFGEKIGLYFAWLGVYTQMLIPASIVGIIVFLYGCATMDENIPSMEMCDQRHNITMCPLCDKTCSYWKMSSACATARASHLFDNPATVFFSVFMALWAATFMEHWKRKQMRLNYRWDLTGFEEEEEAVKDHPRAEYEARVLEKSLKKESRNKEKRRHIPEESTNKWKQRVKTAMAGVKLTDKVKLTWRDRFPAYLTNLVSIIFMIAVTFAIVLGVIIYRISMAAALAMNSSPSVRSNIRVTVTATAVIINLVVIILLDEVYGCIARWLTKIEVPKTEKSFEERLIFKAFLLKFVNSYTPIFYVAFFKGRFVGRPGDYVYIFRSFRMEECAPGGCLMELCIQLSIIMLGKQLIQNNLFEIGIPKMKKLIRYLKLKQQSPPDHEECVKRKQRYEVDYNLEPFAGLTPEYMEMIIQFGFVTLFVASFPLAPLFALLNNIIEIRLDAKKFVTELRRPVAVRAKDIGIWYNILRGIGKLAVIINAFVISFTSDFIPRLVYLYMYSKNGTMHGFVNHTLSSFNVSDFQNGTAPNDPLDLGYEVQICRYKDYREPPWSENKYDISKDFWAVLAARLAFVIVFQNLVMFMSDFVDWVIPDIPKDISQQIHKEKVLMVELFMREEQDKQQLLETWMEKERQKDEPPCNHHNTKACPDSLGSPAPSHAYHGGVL
In words: QPatch-48 assay on HEK293T-derived cell line with doxycycline-induced expression. Type of assay: cell-based. To be noted: 30 μM; expression induced with 10 ng/mL doxycycline. As to the method: In addition, another cell line that was HEK293T-derived and induced expression of TMEM16A on addition of 10 ng/mL of doxycycline also performed well on the assay. […] These two other cell lines were run on the machine using the predefined parameters that were optimized with the original cells, including the cell preparation protocol. Therefore, it seems that this assay is easily transferable to any cell line expressing TMEM16A.

The target in assay [1] is T2, human ANO1 channel (isoform acd) (Homo sapiens, UniProt Q5XXA6).
T2 construct: host or cells: HEK293T
T2 sequence (Q5XXA6 1-986): T1 sequence (Q5XXA6 1-986)
In words: QPatch-48 single-concentration/multiple-addition (extended incubation) protocol. Type of assay: cell-based. As to the method: As mentioned, due to the nature of the channel and its rundown issues, time limitations exist for recording. Therefore, each concentration of compound is added to the cell for a duration of 60 s. It is possible that the IC50 is shifted for those compounds that require a longer time to act on the channel. To account for this, a single-concentration/multiple-addition protocol was established (Fig. 6). […] This led us to wonder if we were missing the full response to the concentration before the next liquid period began and the more concentrated, cumulative addition was applied to the cell. The original application protocol was amended to allow for two 4-min incubations with the same concentration of compound. The total length of the assay is roughly 15 min, with two 1-min saline additions to stabilize current, two 1-min vehicle additions to account for any DMSO effects, and two 4-min compound additions, ending with two 1-min saline additions to look for washout effects. The same IV voltage protocol was used as well as the same whole-cell conditions and solutions. When niclosamide was run with this extended incubation protocol, the IC50 was four times as potent (Fig. 6), aligning nicely with the other in-house assays that were run. A DMSO condition was included to account for any rundown that occurred, with the result of 92% current remaining at the end of the assay. Therefore, the block observed with niclosamide additions was not due to rundown. When 240 nM was added, the current plateaued at ∼60% current amplitude. […] Any compounds that result in partial inhibition with the original assay can be run on the multiple-addition assay to see if they require more time to inhibit the channel.
Fig. 6. Current time plots of the modified protocol with multiple additions of a single concentration. Top: IT plot when 240 nM niclosamide is added to a cell. Bottom: IT plot when 1.2 μM niclosamide is added to a cell.
Background: Patch clamp records ionic current or voltage across a cell membrane.

Read-outs that look alike come from different tables or passages of the source.

For the molecule `CCc1oc2ccccc2c1C(=O)c1cc(Br)c(O)c(Br)c1` [Benzbromarone], the block of currents result at TMEM16A was “fully blocked”.

Consider `O=C(Nc1ccc([N+](=O)[O-])cc1Cl)c1cc(Cl)ccc1O` [Niclosamide], for which the “current amplitude at plateau” value in assay [1] (240 nM) was about 60%. The “block in current after first 4-min incubation” value in assay [1] (1.2 μM, after first addition) worked out at 50%. Moreover, in assay [1] (1.2 μM, after second 4-min addition), the “final block after second addition” value was 78%. In addition, the IC50 came out at 352 nM in assay [1] (Fig. 6 table in picture, read-out: IC50, Single Concentration- Multiple Additions); 352 nM in assay [1] (single concentration, multiple additions, Fig. 6 curve, read-out: IC50, modified single-concentration assay); 221 ± 185 nM in assay [1] (two 4-min additions of the same concentration, n = 2, read-out: final IC50 (mean ± SD)).

The record behind these values is publication PMC7268545, “Development of a QPatch-Automated Electrophysiology Assay for Identifying TMEM16A Small-Molecule Inhibitors” (Assay and Drug Development Technologies, 2020).
